Test results reported in US12551570B2, “Compounds comprising cleavable linker and uses thereof” (IntoCell, Inc., priority 2019, dated 2026).

Tests used:
[1] = Plasma stability test, human plasma; type: in vitro ADME; conditions: 37° C., 300 μM
Method: (§1) Compound A-2 or A-3 and MPS used as an internal standard were dissolved in DMSO to achieve a concentration of 60 mM. Then, each of human plasma (Biochemed 752PR-SC-PMG), mouse plasma (Biochemed 029-APSC-MP), rat plasma (Biochemed 031-APSC-MP), and beagle dog plasma (Biochemed 013-APSC-MP) were mixed with the solution of the compound and MPS to achieve a final concentration of 300 μM (final 0.5% DMSO). The resulting plasma mixtures were incubated at 37° C. Aliquots were taken before the reaction and after 1 day, 2 days, 4 days, and 7 days. Each aliquot was 300 μL. To complete the reaction, two-fold volume of acetonitrile was added, followed by brief vortexing and centrifugation for plasma protein precipitation. Each supernatant obtained after centrifugation was collected and analyzed by HPLC. Compounds A-2 and A-3 were detected and quantitated in the mouse and human plasma for up to 7 days (>95%). […] The results of the plasma stability studies are shown in Tables 3 and 4 and FIGS. 6 and 7.

[2] = Plasma stability test, mouse plasma; type: in vitro ADME; conditions: 37° C., 300 μM
Method: as §1

Structure (SMILES)	Remaining Substrate, %, Human Plasma ([1]; 0 days)	Remaining Substrate, %, Human Plasma ([1]; 1 day)	Remaining Substrate, %, Human Plasma ([1]; 2 days)	Remaining Substrate, %, Human Plasma ([1]; 7 days)	Remaining Substrate, %, Mouse Plasma ([2]; 0 days)	Remaining Substrate, %, Mouse Plasma ([2]; 1 day)	Remaining Substrate, %, Mouse Plasma ([2]; 2 days)	Remaining Substrate, %, Mouse Plasma ([2]; 7 days)	Remaining Substrate, %, Human Plasma ([1]; 4 days)	Remaining Substrate, %, Mouse Plasma ([2]; 4 days)
C[N+]1(Cc2ccc(OS(=O)(=NCCOCCOCCOCCN=[N+]=[N-])Oc3ccccc3O[C@@H]3O[C@H](CO)[C@H](O)[C@H](O)[C@H]3O)cc2)CCCC[C@@H]1C(=O)Nc1ccccc1 (stereo partly drawn) [Compound A-3]	100%	97%	98%	99%	100%	94%	90%	92%	–	–
CC(C)(C)OC(=O)N[C@@H](Cc1ccc(OS(=O)(=NCCOCCOCCOCCN=[N+]=[N-])Oc2ccccc2O[C@@H]2O[C@H](CO)[C@H](O)[C@H](O)[C@H]2O)cc1)C(=O)O (stereo partly drawn) [Compound A-2]	100%	100%	104%	101%	100%	102%	100%	95%	99%	97%
